Reference: patent US5977063A, “Alkylated hexapeptides” (Eli Lilly and Company, priority 1998, dated 1999)

Legend:
Format in all cases: cell-based
[1] = tested on: Enterococcus faecium and faecalis (RESISTANT); conditions: geometric mean of 4-6 isolates
Experimental: (§1) The antibacterial efficacy of the present compounds is illustrated by Table II. The minimal inhibitory concentrations (MICs) were determined using a standard broth micro-dilution assay.

[2] = tested on: Staphylococcus haemolyticus 415; experiment: MIC, standard broth micro-dilution assay, SH 415; parameters: unit not given here
Experimental: as §1

[3] = tested on: Staphylococcus epidermidis 270; experiment: MIC, standard broth micro-dilution assay, SE 270; parameters: unit not given here
Experimental: as §1

[4] = tested on: Streptococcus pyogenes C203; experiment: MIC, standard broth micro-dilution assay, SPY C203; parameters: unit not given here
Experimental: as §1

[5] = tested on: Enterococcus faecium and faecalis (SENSITIVE); experiment: MIC, standard broth micro-dilution assay, SENSITIVE enterococci; parameters: unit not given here; conditions: geometric mean of 4-6 isolates
Experimental: as §1

[6] = tested on: Staphylococcus haemolyticus 105; experiment: MIC, standard broth micro-dilution assay, SH 105; parameters: unit not given here
Experimental: as §1

[7] = tested on: Staphylococcus aureus 447; experiment: MIC, standard broth micro-dilution assay, SA 447; parameters: unit not given here
Experimental: as §1

[8] = tested on: Staphylococcus aureus 446; experiment: MIC, standard broth micro-dilution assay, SA 446; parameters: unit not given here
Experimental: as §1

[9] = tested on: Streptococcus pneumoniae P1; experiment: MIC, standard broth micro-dilution assay, SPN P1; parameters: unit not given here
Experimental: as §1

[10] = tested on: Staphylococcus aureus 489; experiment: MIC, standard broth micro-dilution assay, SA 489; parameters: unit not given here
Experimental: as §1

C[C@@H]1O[C@@H](O[C@H]2[C@H](Oc3c4cc5cc3Oc3ccc(cc3Cl)[C@@H](O[C@H]3C[C@](C)(N)[C@@H](O)[C@H](C)O3)[C@@H]3NC(=O)[C@H](NC(=O)[C@@H]5NC(=O)[C@H](CC(N)=O)NC(=O)[C@H](NCc5ccccc5)[C@H](O)c5ccc(c(Cl)c5)O4)c4ccc(O)c(c4)-c4c(O)cc(O)cc4[C@@H](C(=O)O)NC3=O)O[C@H](CO)[C@@H](O)[C@@H]2O)C[C@](C)(N)[C@H]1O [Example 12, N^1 -BENZYLDESLEUCYL-A82846B]
Minimal Inhibitory Concentration (MIC) RESISTANT [1]: > 128
Minimal Inhibitory Concentration (MIC) SH 415 [2]: > 64
Minimal Inhibitory Concentration (MIC) SE 270 [3]: > 64
Minimal Inhibitory Concentration (MIC) SPY C203 [4]: 2
Minimal Inhibitory Concentration (MIC) SENSITIVE [5]: 128
Minimal Inhibitory Concentration (MIC) SH 105 [6]: > 64
Minimal Inhibitory Concentration (MIC) SA 447 [7]: > 64
Minimal Inhibitory Concentration (MIC) SA 446 [8]: > 64
Minimal Inhibitory Concentration (MIC) SPN P1 [9]: 2
Minimal Inhibitory Concentration (MIC) SA 489 [10]: 64

C[C@@H]1O[C@@H](O[C@H]2[C@H](Oc3c4cc5cc3Oc3ccc(cc3Cl)[C@@H](O[C@H]3C[C@](C)(N)[C@@H](O)[C@H](C)O3)[C@@H]3NC(=O)[C@H](NC(=O)[C@@H]5NC(=O)[C@H](CC(N)=O)NC(=O)[C@H](NCc5ccc(-c6cc(C(F)(F)F)cc(C(F)(F)F)c6)cc5)[C@H](O)c5ccc(c(Cl)c5)O4)c4ccc(O)c(c4)-c4c(O)cc(O)cc4[C@@H](C(=O)O)NC3=O)O[C@H](CO)[C@@H](O)[C@@H]2O)C[C@](C)(N)[C@H]1O [Example 22, N^1 -(p-(3,5-BIS-(TRIFLUOROMETHYL)-PHENYL)BENZYL)-DESLEUCYL-A82846B]
Minimal Inhibitory Concentration (MIC) RESISTANT [1]: 9.5
Minimal Inhibitory Concentration (MIC) SH 415 [2]: 2
Minimal Inhibitory Concentration (MIC) SE 270 [3]: 2
Minimal Inhibitory Concentration (MIC) SPY C203 [4]: ≤ .06
Minimal Inhibitory Concentration (MIC) SENSITIVE [5]: 4.6
Minimal Inhibitory Concentration (MIC) SH 105 [6]: 1
Minimal Inhibitory Concentration (MIC) SA 447 [7]: 2
Minimal Inhibitory Concentration (MIC) SA 446 [8]: 2
Minimal Inhibitory Concentration (MIC) SPN P1 [9]: ≤ .06
Minimal Inhibitory Concentration (MIC) SA 489 [10]: 1

CCCCCCCCOc1ccc(CN[C@H]2C(=O)N[C@@H](CC(N)=O)C(=O)N[C@H]3C(=O)N[C@H]4C(=O)N[C@H](C(=O)N[C@H](C(=O)O)c5cc(O)cc(O)c5-c5cc4ccc5O)[C@H](O[C@H]4C[C@](C)(N)[C@@H](O)[C@H](C)O4)c4ccc(c(Cl)c4)Oc4cc3cc(c4O[C@@H]3O[C@H](CO)[C@@H](O)[C@H](O)[C@H]3O[C@H]3C[C@](C)(N)[C@@H](O)[C@H](C)O3)Oc3ccc(cc3Cl)[C@H]2O)cc1 [Example 23, N^1 -(p-(n-OCTYLOXY)-BENZYL)DESLEUCYL-A82846B]
Minimal Inhibitory Concentration (MIC) RESISTANT [1]: 11
Minimal Inhibitory Concentration (MIC) SH 415 [2]: 8
Minimal Inhibitory Concentration (MIC) SE 270 [3]: 4
Minimal Inhibitory Concentration (MIC) SPY C203 [4]: 0.25
Minimal Inhibitory Concentration (MIC) SENSITIVE [5]: 9.2
Minimal Inhibitory Concentration (MIC) SH 105 [6]: 4
Minimal Inhibitory Concentration (MIC) SA 447 [7]: 4
Minimal Inhibitory Concentration (MIC) SA 446 [8]: 8
Minimal Inhibitory Concentration (MIC) SPN P1 [9]: 1
Minimal Inhibitory Concentration (MIC) SA 489 [10]: 4

C[C@@H]1O[C@@H](O[C@H]2[C@H](Oc3c4cc5cc3Oc3ccc(cc3Cl)[C@@H](O[C@H]3C[C@](C)(N)[C@@H](O)[C@H](C)O3)[C@@H]3NC(=O)[C@H](NC(=O)[C@@H]5NC(=O)[C@H](CC(N)=O)NC(=O)[C@H](NCCCCCCc5ccccc5)[C@H](O)c5ccc(c(Cl)c5)O4)c4ccc(O)c(c4)-c4c(O)cc(O)cc4[C@@H](C(=O)O)NC3=O)O[C@H](CO)[C@@H](O)[C@@H]2O)C[C@](C)(N)[C@H]1O [Example 14, N^1 -(6-PHENYL-n-HEXYL)DESLEUCYL-A82846B]
Minimal Inhibitory Concentration (MIC) RESISTANT [1]: > 50
Minimal Inhibitory Concentration (MIC) SH 415 [2]: 8
Minimal Inhibitory Concentration (MIC) SE 270 [3]: 8
Minimal Inhibitory Concentration (MIC) SPY C203 [4]: ≤ .06
Minimal Inhibitory Concentration (MIC) SENSITIVE [5]: 37
Minimal Inhibitory Concentration (MIC) SH 105 [6]: 8
Minimal Inhibitory Concentration (MIC) SA 447 [7]: 8
Minimal Inhibitory Concentration (MIC) SA 446 [8]: 16
Minimal Inhibitory Concentration (MIC) SPN P1 [9]: ≤ .06
Minimal Inhibitory Concentration (MIC) SA 489 [10]: 8

CCCCCCN[C@H]1C(=O)N[C@@H](CC(N)=O)C(=O)N[C@H]2C(=O)N[C@H]3C(=O)N[C@H](C(=O)N[C@H](C(=O)O)c4cc(O)cc(O)c4-c4cc3ccc4O)[C@H](O[C@H]3C[C@](C)(N)[C@@H](O)[C@H](C)O3)c3ccc(c(Cl)c3)Oc3cc2cc(c3O[C@@H]2O[C@H](CO)[C@@H](O)[C@H](O)[C@H]2O[C@H]2C[C@](C)(N)[C@@H](O)[C@H](C)O2)Oc2ccc(cc2Cl)[C@H]1O [Example 10, N^1 -n-HEXYLDESLEUCYL-A82846B]
Minimal Inhibitory Concentration (MIC) RESISTANT [1]: > 128
Minimal Inhibitory Concentration (MIC) SH 415 [2]: 64
Minimal Inhibitory Concentration (MIC) SE 270 [3]: 32
Minimal Inhibitory Concentration (MIC) SPY C203 [4]: 16
Minimal Inhibitory Concentration (MIC) SENSITIVE [5]: > 128
Minimal Inhibitory Concentration (MIC) SH 105 [6]: 64
Minimal Inhibitory Concentration (MIC) SA 447 [7]: 32
Minimal Inhibitory Concentration (MIC) SA 446 [8]: 32
Minimal Inhibitory Concentration (MIC) SPN P1 [9]: 32
Minimal Inhibitory Concentration (MIC) SA 489 [10]: 16

CSc1ccc(CN[C@H]2C(=O)N[C@@H](CC(N)=O)C(=O)N[C@H]3C(=O)N[C@H]4C(=O)N[C@H](C(=O)N[C@H](C(=O)O)c5cc(O)cc(O)c5-c5cc4ccc5O)[C@H](O[C@H]4C[C@](C)(N)[C@@H](O)[C@H](C)O4)c4ccc(c(Cl)c4)Oc4cc3cc(c4O[C@@H]3O[C@H](CO)[C@@H](O)[C@H](O)[C@H]3O[C@H]3C[C@](C)(NCc4ccc(SC)cc4)[C@@H](O)[C@H](C)O3)Oc3ccc(cc3Cl)[C@H]2O)cc1 [Example 25, N^1,N^DISACC -BIS(p-(METHYLTHIO)-BENZYL)DESLEUCYL-A82846B]
Minimal Inhibitory Concentration (MIC) RESISTANT [1]: 6.7
Minimal Inhibitory Concentration (MIC) SH 415 [2]: 8
Minimal Inhibitory Concentration (MIC) SE 270 [3]: 8
Minimal Inhibitory Concentration (MIC) SPY C203 [4]: 4
Minimal Inhibitory Concentration (MIC) SENSITIVE [5]: 2.6
Minimal Inhibitory Concentration (MIC) SH 105 [6]: 4
Minimal Inhibitory Concentration (MIC) SA 447 [7]: 4
Minimal Inhibitory Concentration (MIC) SA 446 [8]: 8
Minimal Inhibitory Concentration (MIC) SPN P1 [9]: 1
Minimal Inhibitory Concentration (MIC) SA 489 [10]: 4

CSc1ccc(CN[C@H]2C(=O)N[C@@H](CC(N)=O)C(=O)N[C@H]3C(=O)N[C@H]4C(=O)N[C@H](C(=O)N[C@H](C(=O)O)c5cc(O)cc(O)c5-c5cc4ccc5O)[C@H](O[C@H]4C[C@](C)(N)[C@@H](O)[C@H](C)O4)c4ccc(c(Cl)c4)Oc4cc3cc(c4O[C@@H]3O[C@H](CO)[C@@H](O)[C@H](O)[C@H]3O[C@H]3C[C@](C)(N)[C@@H](O)[C@H](C)O3)Oc3ccc(cc3Cl)[C@H]2O)cc1 [Example 24, N^1 -(p-(METHYLTHIO)-BENZYL)DESLEUCYL-A82846B]
Minimal Inhibitory Concentration (MIC) RESISTANT [1]: > 128
Minimal Inhibitory Concentration (MIC) SH 415 [2]: 64
Minimal Inhibitory Concentration (MIC) SE 270 [3]: 32
Minimal Inhibitory Concentration (MIC) SPY C203 [4]: 8
Minimal Inhibitory Concentration (MIC) SENSITIVE [5]: > 128
Minimal Inhibitory Concentration (MIC) SH 105 [6]: 32
Minimal Inhibitory Concentration (MIC) SA 447 [7]: 32
Minimal Inhibitory Concentration (MIC) SA 446 [8]: 32
Minimal Inhibitory Concentration (MIC) SPN P1 [9]: 8
Minimal Inhibitory Concentration (MIC) SA 489 [10]: 16

C[C@@H]1O[C@@H](O[C@@H]2c3ccc(c(Cl)c3)Oc3cc4cc(c3O[C@@H]3O[C@H](CO)[C@@H](O)[C@H](O)[C@H]3O[C@H]3C[C@](C)(NCc5ccc(-c6ccc(Cl)cc6)cc5)[C@@H](O)[C@H](C)O3)Oc3ccc(cc3Cl)[C@@H](O)[C@@H](NCCCCCCc3ccccc3)C(=O)N[C@@H](CC(N)=O)C(=O)N[C@H]4C(=O)N[C@H]3C(=O)N[C@@H]2C(=O)N[C@H](C(=O)O)c2cc(O)cc(O)c2-c2cc3ccc2O)C[C@](C)(N)[C@H]1O [Example 28, N^1 -(6-PHENYL-n-HEXYL)-N^DISACC -(p-(p-CHLOROPHENYL)BENZYL)DESLEUCYL-A82846B]
Minimal Inhibitory Concentration (MIC) RESISTANT [1]: 6.7
Minimal Inhibitory Concentration (MIC) SH 415 [2]: 2
Minimal Inhibitory Concentration (MIC) SE 270 [3]: 4
Minimal Inhibitory Concentration (MIC) SPY C203 [4]: 4
Minimal Inhibitory Concentration (MIC) SENSITIVE [5]: 7
Minimal Inhibitory Concentration (MIC) SH 105 [6]: 4
Minimal Inhibitory Concentration (MIC) SA 447 [7]: 8
Minimal Inhibitory Concentration (MIC) SA 446 [8]: 8
Minimal Inhibitory Concentration (MIC) SPN P1 [9]: 16
Minimal Inhibitory Concentration (MIC) SA 489 [10]: 8

C[C@@H]1O[C@@H](O[C@H]2[C@H](Oc3c4cc5cc3Oc3ccc(cc3Cl)[C@@H](O[C@H]3C[C@](C)(NCc6ccccc6)[C@@H](O)[C@H](C)O3)[C@@H]3NC(=O)[C@H](NC(=O)[C@@H]5NC(=O)[C@H](CC(N)=O)NC(=O)[C@H](NCc5ccccc5)[C@H](O)c5ccc(c(Cl)c5)O4)c4ccc(O)c(c4)-c4c(O)cc(O)cc4[C@@H](C(=O)O)NC3=O)O[C@H](CO)[C@@H](O)[C@@H]2O)C[C@](C)(NCc2ccc(-c3ccccc3)cc2)[C@H]1O [Example 6, N^1,N^MONOSACC -DIBENZYL-N^DISACC -(p-PHENYLBENZYL)-DESLEUCYL-A82846B]
Minimal Inhibitory Concentration (MIC) RESISTANT [1]: 16
Minimal Inhibitory Concentration (MIC) SH 415 [2]: 1
Minimal Inhibitory Concentration (MIC) SE 270 [3]: 0.5
Minimal Inhibitory Concentration (MIC) SPY C203 [4]: 0.125
Minimal Inhibitory Concentration (MIC) SENSITIVE [5]: 6.1
Minimal Inhibitory Concentration (MIC) SH 105 [6]: 0.5
Minimal Inhibitory Concentration (MIC) SA 447 [7]: 2
Minimal Inhibitory Concentration (MIC) SA 446 [8]: 2
Minimal Inhibitory Concentration (MIC) SPN P1 [9]: 0.5
Minimal Inhibitory Concentration (MIC) SA 489 [10]: 2
